Reference: patent US20250197420A1, “MACROCYCLIC COMPOUNDS, COMPOSITIONS, AND METHODS OF USING THEREOF” (Sionna Therapeutics Inc., priority 2022, published 2025)

Tests used:
[1] = system: Primary human bronchial epithelial cells from a ΔF508 homozygous CF donor (CF-HBE cells); test: TECC24 recording of CFTR-mediated transepithelial chloride transport, AUC fold over benchmark VX-809 @10 μM; format: cell-based; conditions: 48 hours incubation, AUC of forskolin-stimulated IEQ
Procedure, shortened: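 CF-HBE cells on inserts were treated with compound for 48 h at 36.5 °C, then recorded in current-clamp with benzamil 10 μM, forskolin 10 μM, and finally CFTR inhibitor-172 20 μM in pH 7.4 Hepes saline. Equivalent Cl− current AUC between forskolin and inhibitor addition is expressed as a ratio to VX-809 AUC: A <3, B 3–6, C 6–20.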

[2] = molecular target: T1, Purified recombinant NBD1 (Homo sapiens, UniProt P13569); test: Aggregation analysis using differential static light scattering (DSLS): thermal stability of NBD1; format: binding; conditions: NBD1 0.2 mg/ml; Tagg of compound well minus average Tagg of DMSO control wells
T1 construct: Purified recombinant NBD1 was produced using previously described methods; made in house
T1 sequence (P13569 423-646 limits assumed): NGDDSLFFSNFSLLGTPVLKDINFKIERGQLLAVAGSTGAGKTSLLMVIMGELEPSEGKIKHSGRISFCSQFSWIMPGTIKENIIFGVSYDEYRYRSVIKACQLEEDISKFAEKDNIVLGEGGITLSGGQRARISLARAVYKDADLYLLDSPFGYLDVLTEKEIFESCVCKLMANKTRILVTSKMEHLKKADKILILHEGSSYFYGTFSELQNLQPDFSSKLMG
Procedure, shortened: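 Recombinant NBD1 at 0.2 mg/ml in Tris/NaCl/MgCl2 buffer with 2 mM ATP, 2 mM DTT, 1% glycerol, pH 7.6, was incubated with compound and heated at 1 °C/min to 70 °C while static light scattering was monitored. Tagg was taken from the curve inflection point and reported as ΔTagg relative to DMSO controls.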

Structure (SMILES) | TECC (test agent AUC divided by VX-809 AUC) [1] | DSLS (ΔTagg) [2]
CC1CCC(C)(c2cccc(CCC(=O)O)c2)c2cnc([nH]2)-c2cc(ccc2F)Oc2c(F)cc3[nH]ccc3c2CCNC(=O)OC1 (centres unmarked) [Compound 87, 3-[3-(23,29-Difluoro-6,9-dimethyl-12-oxo-11,25-dioxa-3,13,20,31-tetrazapentacyclo[24.3.1.12,5.016,24.017,21]hentriaconta-1(30),2,4,16(24),17(21),18,22,26,28-nonaen-6-yl)phenyl]propanoic acid] | B (a value between 3 and 6 is marked “B”) | C (a value greater than 10 °C and less than or equal to 25 °C is marked “C”)
CC1(C)CCCCC(C)(c2cccc(CCC(=O)O)c2)c2cnc([nH]2)-c2cc(ccc2F)Oc2c(F)cc3[nH]ccc3c2COC(=O)N1 (centres unmarked) [Compound 88, 3-[3-(23,29-Difluoro-6,11,11-trimethyl-13-oxo-14,25-dioxa-3,12,20,31-tetrazapentacyclo[24.3.1.12,5.016,24.017,21]hentriaconta-1(30),2,4,16,18,21,23,26,28-nonaen-6-yl)phenyl]propanoic acid] | B (a value between 3 and 6 is marked “B”) | C (a value greater than 10 °C and less than or equal to 25 °C is marked “C”)
CC1(C)CCCC(C)(c2cccc(CCC(=O)O)c2)c2cnc([nH]2)-c2cc(ccc2F)Oc2c(F)cc3[nH]ccc3c2CNC(=O)OC1 (centres unmarked) [Compound 89, 3-[3-(23,29-Difluoro-6,10,10-trimethyl-13-oxo-12,25-dioxa-3,14,20,31-tetrazapentacyclo[24.3.1.12,5.016,24.017,21]hentriaconta-1(30),2,4,16,18,21,23,26,28-nonaen-6-yl)phenyl]propanoic acid] | B (a value between 3 and 6 is marked “B”) | C (a value greater than 10 °C and less than or equal to 25 °C is marked “C”)
CC1(C)CCCC(C)(c2cccc(CCC(=O)O)c2)c2nnc([nH]2)-c2cc(ccc2F)Oc2c(F)cc3[nH]ccc3c2COC(=O)NC1 (centres unmarked) [Compound 90, 3-[3-(23,29-Difluoro-6,10,10-trimethyl-13-oxo-14,25-dioxa-3,4,12,20,31-pentazapentacyclo[24.3.1.12,5.016,24.017,21]hentriaconta-1(30),2,4,16(24),17(21),18,22,26,28-nonaen-6-yl)phenyl]propanoic acid] | B (a value between 3 and 6 is marked “B”) | C (a value greater than 10 °C and less than or equal to 25 °C is marked “C”)
CC1(C)CCCC(C)(c2ccccc2)c2nnc([nH]2)-c2cc(ccc2F)Oc2c(F)cc3[nH]ccc3c2COC(=O)NC1 (centres unmarked) [Compound 91, 23,29-Difluoro-6,10,10-trimethyl-6-phenyl-14,25-dioxa-3,4,12,20,31-pentazapentacyclo[24.3.1.12,5.016,24.017,21]hentriaconta-1(30),2,4,16(24),17(21),18,22,26,28-nonaen-13-one] | A (a TECC value less than 3 is marked “A”) | B (a value above 5 °C and less than or equal to 10 °C is marked “B”)
CC1(C)CCC(C)(c2cccc(CCC(=O)O)c2)c2cnc([nH]2)-c2cc(ccc2F)Oc2c(F)cc3[nH]ccc3c2CCOC(=O)NC1 (centres unmarked) [Compound 92, 3-[3-(23,29-Difluoro-6,9,9-trimethyl-12-oxo-13,25-dioxa-3,11,20,31-tetrazapentacyclo[24.3.1.12,5.016,24.017,21]hentriaconta-1(30),2,4,16(24),17(21),18,22,26,28-nonaen-6-yl)phenyl]propanoic acid] | C (a value between 6 and 20 is marked “C”) | C (a value greater than 10 °C and less than or equal to 25 °C is marked “C”)
CC1(C)CCCCC(C)(c2ccccc2)c2cnc([nH]2)-c2cc(ccc2F)Oc2c(F)cc3[nH]ccc3c2COC(=O)N1 (centres unmarked) [Compound 94, 23,29-Difluoro-6,11,11-trimethyl-6-phenyl-14,25-dioxa-3,12,20,31-tetrazapentacyclo[24.3.1.12,5.016,24.017,21]hentriaconta-1(30),2,4,16,18,21,23,26,28-nonaen-13-one] | A (a TECC value less than 3 is marked “A”) | B (a value above 5 °C and less than or equal to 10 °C is marked “B”)
Cn1nc2nc1-c1cc(ccc1F)Oc1c(F)cc3[nH]ccc3c1COC(=O)NC(C)(C)CCCCC2(C)c1ccccc1 (centres unmarked) [Compound 102, 23,29-difluoro-3,6,11,11-tetramethyl-6-phenyl-14,25-dioxa-3,4,12,20,31-pentazapentacyclo[24.3.1.12,5.016,24.017,21]hentriaconta-1(30),2(31),4,16,18,21,23,26,28-nonaen-13-one] | B (a value between 3 and 6 is marked “B”) | B (a value above 5 °C and less than or equal to 10 °C is marked “B”)
CC(Cc1cccc(C2(C)CCCCC(C)(C)N(C)C(=O)OCc3c(c(F)cc4[nH]ccc34)Oc3ccc(F)c(c3)-c3nc2nn3C)c1)C(=O)O (centres unmarked) [Compound 103, 3-[3-(23,29-difluoro-3,6,11,11,12-pentamethyl-13-oxo-14,25-dioxa-3,4,12,20,31-pentazapentacyclo[24.3.1.12,5.016,24.017,21]hentriaconta-1(30),2(31),4,16,18,21,23,26,28-nonaen-6-yl)phenyl]-2-methyl-propanoic acid] | A (a TECC value less than 3 is marked “A”) | C (a value greater than 10 °C and less than or equal to 25 °C is marked “C”)
CC1(c2cccc(CCC(=O)O)c2)CCCC(O)CNC(=O)CCc2c(c(F)cc3[nH]ccc23)Oc2ccc(F)c(c2)-c2ncc1[nH]2 (centres unmarked) [Compound 106, 3-[3-(23,29-Difluoro-10-hydroxy-6-methyl-13-oxo-25-oxa-3,12,20,31-tetrazapentacyclo[24.3.1.12,5.016,24.017,21]hentriaconta-1(30),2,4,16,18,21,23,26,28-nonaen-6-yl)phenyl]propanoic acid] | B (a value between 3 and 6 is marked “B”) | C (a value greater than 10 °C and less than or equal to 25 °C is marked “C”)
CC1(c2cccc(CCC(=O)O)c2)CCCC(=O)CNC(=O)CCc2c(c(F)cc3[nH]ccc23)Oc2ccc(F)c(c2)-c2ncc1[nH]2 (centres unmarked) [Compound 107, 3-[3-(23,29-Difluoro-6-methyl-10,13-dioxo-25-oxa-3,12,20,31-tetrazapentacyclo[24.3.1.12,5.016,24.017,21]hentriaconta-1(30),2,4,16,18,21,23,26,28-nonaen-6-yl)phenyl]propanoic acid] | B (a value between 3 and 6 is marked “B”) | C (a value greater than 10 °C and less than or equal to 25 °C is marked “C”)
CC1(c2cccc(CCC(=O)O)c2)CCCCCC(O)CNC(=O)Cc2c(c(F)cc3[nH]ccc23)Oc2ccc(F)c(c2)-c2ncc1[nH]2 (centres unmarked) [Compound 108, 3-[3-(24,30-Difluoro-12-hydroxy-6-methyl-15-oxo-26-oxa-3,14,21,32-tetrazapentacyclo[25.3.1.12,5.017,25.018,22]dotriaconta-1(31),2,4,17,19,22,24,27,29-nonaen-6-yl)phenyl]propanoic acid] | A (a TECC value less than 3 is marked “A”) | C (a value greater than 10 °C and less than or equal to 25 °C is marked “C”)
CC1(c2cccc(CCC(=O)O)c2)CCCCCC(=O)CNC(=O)Cc2c(c(F)cc3[nH]ccc23)Oc2ccc(F)c(c2)-c2ncc1[nH]2 (centres unmarked) [Compound 109, 3-[3-(24,30-Difluoro-6-methyl-12,15-dioxo-26-oxa-3,14,21,32-tetrazapentacyclo[25.3.1.12,5.017,25.018,22]dotriaconta-1(31),2,4,17,19,22,24,27,29-nonaen-6-yl)phenyl]propanoic acid] | B (a value between 3 and 6 is marked “B”) | C (a value greater than 10 °C and less than or equal to 25 °C is marked “C”)
CC1(c2cccc(CCC(=O)O)c2)CCCCCC(=O)NCC(O)Cc2c(c(F)cc3[nH]ccc23)Oc2ccc(F)c(c2)-c2ncc1[nH]2 (centres unmarked) [Compound 110, 3-[3-(24,30-Difluoro-15-hydroxy-6-methyl-12-oxo-26-oxa-3,13,21,32-tetrazapentacyclo[25.3.1.12,5.017,25.018,22]dotriaconta-1(31),2,4,17,19,22,24,27,29-nonaen-6-yl)phenyl]propanoic acid] | B (a value between 3 and 6 is marked “B”) | C (a value greater than 10 °C and less than or equal to 25 °C is marked “C”)
CC1(c2cccc(CCC(=O)O)c2)CCCCCC(=O)NCC(=O)Cc2c(c(F)cc3[nH]ccc23)Oc2ccc(F)c(c2)-c2ncc1[nH]2 (centres unmarked) [Compound 111, 3-[3-(24,30-Difluoro-6-methyl-12,15-dioxo-26-oxa-3,13,21,32-tetrazapentacyclo[25.3.1.12,5.017,25.018,22]dotriaconta-1(31),2,4,17,19,22,24,27,29-nonaen-6-yl)phenyl]propanoic acid] | C (a value between 6 and 20 is marked “C”) | C (a value greater than 10 °C and less than or equal to 25 °C is marked “C”)
CN1CC(O)CCCCCC(C)(c2cccc(CCC(=O)O)c2)c2cnc([nH]2)-c2cc(ccc2F)Oc2c(F)cc3[nH]ccc3c2CC1=O (centres unmarked) [Compound 112, 3-[3-(24,30-Difluoro-12-hydroxy-6,14-dimethyl-15-oxo-26-oxa-3,14,21,32-tetrazapentacyclo[25.3.1.12,5.017,25.018,22]dotriaconta-1(30),2,4,17(25),18(22),19,23,27(31),28-nonaen-6-yl)phenyl]propanoic acid] | B (a value between 3 and 6 is marked “B”) | C (a value greater than 10 °C and less than or equal to 25 °C is marked “C”)
